According to patent publication US7160889B2, “Quinazoline compounds” (AstraZeneca AB, priority 2000, dated 2007):

Biological target: T1, KDR receptor (Homo sapiens, UniProt P35968)
T1 construct: made in house; host or cells: insect cells (e.g. Spodoptera frugiperda Sf21, baculovirus)
Assay: In vitro receptor tyrosine kinase inhibition test (a), KDR receptor
Type: biochemical
Conditions: using the KDR receptor
Text: (a) In vitro Receptor Tyrosine Kinase Inhibition Test
This assay determines the ability of a test compound to inhibit tyrosine kinase activity. DNA encoding VEGF, FGF or EGF receptor cytoplasmic domains may be obtained by total gene synthesis (Edwards M, International Biotechnology Lab 5(3), 19–25, 1987) or by cloning. These may then be expressed in a suitable expression system to obtain polypeptide with tyrosine kinase activity. […] In the case of the VEGF receptor Flt (Genbank accession number X51602), a 7 kb DNA fragment encoding most of the cytoplasmic domain, commencing with methionine 783 and including the termination codon, described by Shibuya et al (Oncogene, 1990, 5: 519–524), was isolated from cDNA and cloned into a baculovirus transplacement vector (for example pAcYM1 (see The Baculovirus Expression System: A Laboratory Guide, L. A. King and R. D. Possee, Chapman and Hall, 1992) or pAc360 or pBlueBacHis (available from Invitrogen Corporation)). This recombinant construct was co-transfected into insect cells (for example Spodoptera frugiperda 21(Sf21)) with viral DNA (eg Pharmingen BaculoGold) to prepare recombinant baculovirus. […]

T1 sequence (P35968 786-1356 limits assumed): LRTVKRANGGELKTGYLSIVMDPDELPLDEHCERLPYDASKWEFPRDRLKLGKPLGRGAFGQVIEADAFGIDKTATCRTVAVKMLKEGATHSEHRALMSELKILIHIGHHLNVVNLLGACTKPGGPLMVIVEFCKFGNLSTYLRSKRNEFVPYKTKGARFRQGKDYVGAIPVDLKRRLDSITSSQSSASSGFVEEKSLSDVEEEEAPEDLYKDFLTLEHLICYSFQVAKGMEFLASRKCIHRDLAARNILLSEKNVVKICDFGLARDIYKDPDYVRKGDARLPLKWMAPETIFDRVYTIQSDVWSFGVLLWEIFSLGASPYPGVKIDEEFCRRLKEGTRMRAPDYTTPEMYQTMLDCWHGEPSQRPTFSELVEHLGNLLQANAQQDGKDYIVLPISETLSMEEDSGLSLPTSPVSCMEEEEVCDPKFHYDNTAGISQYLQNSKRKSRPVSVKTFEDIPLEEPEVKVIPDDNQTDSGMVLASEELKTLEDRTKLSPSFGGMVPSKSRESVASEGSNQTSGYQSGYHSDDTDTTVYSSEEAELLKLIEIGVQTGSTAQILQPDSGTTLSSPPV

IC50: 15 to 50 nM
Compound: COc1cc2c(Nc3ccc(Br)cc3F)ncnc2cc1OCC(O)CN1CCN(C)CC1 (stereo not shown) [Example 1]
